Tests used:
mold = experiment: AITC vapor against mold growth on produce in an airtight bin (general description); format: in vivo
Procedure: The plurality of produce items is contacted with the antimicrobial agent for a length of time in a range of 1 minute to 100 hours (e.g., 10 minutes to 1 hour). The length of time is dependent on a variety of factors, such as type of produce, target pathogen, and the degree to which the enclosure is sealed. Examples include exposure times between 15 minutes and 96 hours for allyl isothiocyanate (AITC) in an airtight bin. […] Lower antimicrobial agent concentrations with longer exposure times or higher antimicrobial concentrations with shorter exposure times can also be used. For example, the plurality of produce items is contacted with the antimicrobial agent for a length of time in a range of 15 minute to 72 hours.
A concentration of the antimicrobial agent in the headspace of the enclosure is typically in a range of about 20 parts per million by volume (ppmv) to about 5000 ppmv (e.g., about 550 ppmv to about 4800 ppmv, or about 25 ppmv to about 1250 ppmv). Depending on type of produce and exposure time in the enclosure, antimicrobial agent concentrations greater than about 2200 ppmv can sometimes damage the produce. […] In some embodiments, the antimicrobial agent is provided in a concentration to the enclosure in a headspace at least about 1200 ppmv, at least about 1250 ppmv, or about 1250 ppmv to about 5000 ppmv, or about 1250 ppmv to about 4900 ppmv.

avocados = experiment: Durometer shore (firmness, ripening) of treated avocados; format: in vivo, avocado; details: for average increase of shore over uninfected and untreated avocados: Example 22
Procedure: Example 9. The antifungal activity of a range of AITC and carvacrol vapor exposure times was tested against Cg in avocados. To measure the effect of the various treatments on ripening, durometer shore was taken after 7 days of incubation at ambient temperature and high humidity. All samples were wounded by removing the stem and infected by dispensing 1000 Cg spores suspended in 10 μL of water in the wound. The test groups consisted of avocados that were: infected and left untreated on the benchtop; infected and left untreated under a fume hood; exposed to the vapor of 3 mL of AITC in a Petri dish for 24 hours, 48 hours, and 72 hours; and exposed to the vapor of 3 mL of carvacrol in a Petri dish for 72 hours. FIG. 11 quantifies the infection results. […] All exposure times to AITC vapor reduced the incidence of Cg mold compared to the untreated samples. A 24 hour AITC exposure reduced the incidence of Cg mold by 90%. A 48 hour AITC exposure reduced the incidence of Cg mold by 97%. A 72 hour AITC exposure reduced the incidence of Cg mold by 83%.
Example 10. The antifungal activity of a range of AITC vapor exposure times were tested against Cg in avocados. To measure the effect of the various treatments on ripening, durometer shore was taken after 6 days of incubation at ambient temperature and high humidity. All samples were wounded by removing the stem and infected by dispensing 1000 Cg spores suspended in 10 μL of water in each wound. The test groups consisted of avocados that were: infected and left untreated on the benchtop; infected and left untreated in a fume hood; exposed to the vapor of 3 mL of AITC in a Petri dish for 24 hours, 48 hours, and 72 hours. FIG. 13 quantifies the infection results. […] All exposure times to AITC vapor reduced the incidence of Cg mold compared to the untreated samples.
Example 21. The antifungal activity of avocados exposed to AITC vapor and prochloraz was tested against Cg in avocados. To measure the effect of the various treatments on ripening, durometer shore was taken after 5 days of incubation at ambient temperature (about 20° C. to about 25° C.) and high humidity (about 88% relative humidity to about 93% relative humidity). All samples were wounded by removing the stem and infected by dispensing 1000 Cg spores suspended in 10 μL of water in the wound. Exposure to vapor was done by placing the avocados in an airtight container, dispensing AITC onto Whatman filter paper discs, suspending the discs in front of a battery-powered fan, closing the container and incubating the avocados for 30 minutes. After vapor exposure, the avocados were left at ambient temperature, high humidity, and assessed for Cg mold on day 5. Treatment groups consisted of avocados that were: exposed for 30 minutes to the vapor of 125 μL of AITC disposed on a filter paper disc; dipped in a solution of 0.1 g/L of prochloraz and placed to dry on a rack in front of a fan for 30 min; infected and left untreated; and uninfected and untreated. […] To prepare the 0.1 g/L of prochloraz, 10 mg of prochloraz was mixed with 10 mL of ethanol and 90 mL of water. […] A 24 hour AITC exposure reduced the incidence of Cg mold by 90%. […] The mean shore value for the untreated avocados was 28.8 (standard deviation (SD)=10.8). The mean shore value for the infected avocados was 47.3 (SD=11.8). The mean shore value of the positive control, prochloraz treated avocados was 44.3 (SD=14.7). The mean shore value of the AITC treated avocados was 61.1 (SD=10.5).
Durometer Shore Measurement: A Fruit Hardness Tester— HPE III Fff w/Sphere Ø 5.0 mm Test Anvil is used for the measurements. The Operating Procedure is as follows: • 1) At room temperature and 1 atm pressure, switch on the measuring device and press the hull or sleeve against the specimen so that the contact surface of the pressure plate rests on the fruit. […]

C=CCN=C=S [AITC, allyl isothiocyanate]
mold growth on the produce (mold; AITC concentration of 1000 ppm, exposure time of 15 minutes, airtight bin): slowed mold growth on the produce | efficacy against mold on the produce (mold; AITC concentration of 1000 ppm, exposure time of 30 min or longer): good efficacy | effect on mold growth (mold; AITC concentrations in a range of 550 ppmv to 4800 ppmv): some inhibitory effect on mold growth | effect on mold growth (mold; AITC concentrations over 1000 ppmv): tended to be completely inhibitory | average increase of durometer shore over untreated avocados (avocados; Example 9, all AITC treatments (3 mL; 24, 48, 72 hours), after 7 days, P value<0.0001): 20.3 shore | average increase of durometer shore over infected avocados (avocados; Example 10, all AITC treatments (3 mL; 24, 48, 72 hours), after 6 days, P value<0.005): 15.4 shore | shore higher than the untreated avocados (avocados; Example 21, 125 μL, 30 minutes, after 5 days): more than 30 shore | mean shore value (avocados; Example 21, Cg-infected avocados, AITC 125 μL 30 minutes, prochloraz 0.1 g/L dip, after 5 days): 61.1 (SD=10.5) | average increase of shore over uninfected and untreated avocados (avocados; 250 μL, 30 minutes, after 5 days, P value=0.0016): about 10 shore | average increase of shore over uninfected and untreated avocados (avocados; 500 μL, 30 minutes, after 5 days, P value<0.0001): about 28.5 shore | average increase of shore over untreated avocados (avocados; Example 23, 500 μL AITC vapor, coating agent 40 g/L dip, after 11 days, P value<0.0001): 22.5 shore
